The target of one data set is CBP (Homo sapiens (Human), UniProt Q92793). The experiment in a line: Assay of CBP protein activity (HTRF, BRD with acetylated Histone H4 peptide ligand). The format is binding. The method, then: (§1) Assay Example 1: Assay of p300 and CBP Protein Activity
(§2) Reaction buffer: 25 mM HEPES, pH 7.5, 25 mM NaCl, 0.025% CHAPS, 0.025% BSA, 0.5% DMSO.
(§3) Standard Reaction Conditions:
(§4) 5 nM p300-GST, 50 nM peptide ligand.
(§5) Reaction Procedure: • 1. 2.5×BRD was added to the wells of a reaction plate, except for control wells without BRD to which buffer was added instead. • 2. Compounds in 100% DMSO were delivered into the BRD mixture by acoustic technology (Echo550; nanoliter range). The plate was spun down. The mixture was incubated at room temperature for 30 min. • 3. 5×peptide ligand was delivered. The plate was spun down. The mixture was incubated at room temperature for 10 min. • 4. 5×HTRF detection mixture was delivered. The plate was spun down and the mixture was incubated in the dark for 2 h. • 5. A measurement of HTRF was performed with an Envision reader (Ex/Em=320/615, 665 nm). • 6. A HTRF ratio was calculated as follows: [em 665 nm/em 615 nm]*10000.
(§6) The background-subtracted signal (no protein as background) was converted to % bound relative to the DMSO control. Data were analyzed using GraphPad Prism 4 with “sigmoidal dose-response (variable slope)”; and a 4-parameter analysis was performed using Hill slope.
(§7) Constraints: • Bottom=Constant equal to 0 • Top=Must be less than 120
On the technique in general: TR-FRET usually uses a lanthanide donor and a delayed reading to cut background.

Another data set concerns the target p300 (Homo sapiens (Human), UniProt Q09472). The experiment in a line: Assay of p300 protein activity (HTRF, p300-GST with Histone H4 (1-21) K5/8/12/16Ac-GG-Biotin peptide ligand). The following applies: 5 nM p300-GST, 50 nM peptide ligand. The format is binding. Here is the method:
as §1, §2, §3, §4, §5, §6, §7

Data set [1] in a line: Pharmacokinetic study in CD-1 mice (intravenous injection and oral gavage). The data set is classed as in vivo. The note with it: male CD-1 mice. The text has this:
Assay Example 2: Pharmacokinetic Study of Compounds of the Present Disclosure
CD-1 mice (male, 5-6 weeks old, Shanghai Family Planning Research Institute)
Injection: To assay pharmacokinetic characteristics of rodents after intravenous injection administration of compounds by a standard protocol. In the assay, candidate compounds were formulated into clear solutions, and administered to mice as a single intravenous injection. The vehicle for the intravenous injection was a mixed vehicle formulated with 5% of dimethyl sulfoxide and 95% of 10% hydroxypropyl β-cyclodextrin. In this assay, two male CD-1 mice were used for intravenous injection administration at a dose of 0.5 mg/kg. Plasma samples were collected at 0.083, 0.25, 0.5, 1, 2, 4, 8 and 24 h after administration. Whole blood samples were collected within 24 hours, and centrifuged at 3000 g for 15 minutes. The supernatants were separated to obtain plasma samples. To the plasma samples was added 20 times volume of acetonitrile solution containing internal standard to precipitate protein. The mixtures were vortexed and centrifuged. The supernatants were taken for injection. Plasma drug concentration was quantitatively analyzed by LC-MS/MS analysis method, and pharmacokinetic parameters (such as clearance (CL), half-life (T1/2), […] (Vdss), area under the drug-time curve (AUC0-last), etc.) were calculated.
Oral: To assay pharmacokinetic characteristics of rodents after oral administration of compounds by a standard protocol. In the assay, candidate compounds were formulated into homogeneous opaque suspensions, and given to the mice for a single oral administration. The vehicle for the oral administration was a mixed vehicle formulated with 5% of dimethyl sulfoxide and 95% of 0.5% methylcellulose. In this assay, two male CD-1 mice were used for oral gavage administration at a dose of 3 mg/kg. Plasma samples were collected at 0.25, 0.5, 1, 2, 4, 8 and 24 h after administration. Whole blood samples were collected within 24 hours, and centrifuged at 3000 g for 15 minutes. The supernatants were separated to obtain plasma samples. To the plasma samples was added 20 times volume of acetonitrile solution containing internal standard to precipitate protein. The mixtures were vortexed and centrifuged. The supernatants were taken for injection. Plasma drug concentration was quantitatively analyzed by LC-MS/MS analysis method, and pharmacokinetic parameters (such as peak concentration (Cmax), half-life (T1/2), area under the drug-time curve (AUC0-last), etc.) were calculated.

Each structure is given as a SMILES string.

Sequence of p300 (Q09472 1049-1156): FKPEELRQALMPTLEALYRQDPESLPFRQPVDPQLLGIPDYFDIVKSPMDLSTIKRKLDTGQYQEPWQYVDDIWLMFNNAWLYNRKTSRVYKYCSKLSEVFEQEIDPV
Sequence of CBP (Q92793 1085-1192): as the sequence (Q09472 1049-1156) above, with S47N, I73V, Y93F, S98A counted along it

By IC50 is commonly meant the midpoint of a concentration-inhibition curve. The low end stands for greater potency, the high end for weaker potency. On to `COC1CCC(n2c([C@@H]3C[C@H]4C[C@H]4C(=O)N3c3ccc(F)c(F)c3)nc3cc(-c4c(C)noc4C)ccc32)CC1` (single isomer, unassigned) [Compound 3B], for which, at CBP, half-maximal inhibition (IC50) required 0.67 nM. For the same compound, the 50% inhibitory concentration (IC50) on p300 is 2.88 nM. The “Bioavailability F (%)” value in data set [1] (gavage 3 mg/kg vs intravenous 0.5 mg/kg) is listed as 64%. In data set [1] (gavage, 3 mg/kg), the “Area under curve (0-inf) AUC0-inf” value stood at 2.606 µM·h, the “Area under curve (0-t) AUC0-last” value was 2.577 µM·h, the “Time to peak Tmax” value came to 45 min and the “half-life T1/2” value is 67.2 min. Besides, in data set [1] (gavage, 3 mg/kg, read-out: Plasma drug concentration Cmax), the Cmax is 697 nM. Besides, in data set [1] (intravenous, 0.5 mg/kg), the “Apparent distribution volume Vdss” value is reported as 1.65 L/kg, the “Area under curve (0-inf) AUC0-inf” value was 0.676 µM·h, the “Area under curve (0-t) AUC0-last” value came out at 0.665 µM·h and the “Clearance Cl” value was found to be 23.3 mL/min/kg. Moreover, the “half-life T1/2” value in data set [1] (intravenous, 0.5 mg/kg) stood at 59.4 min.

Compound `COC1CCC(n2c([C@H]3C[C@@H]4C[C@@H]4C(=O)N3c3ccc(F)c(F)c3)nc3cc(-c4c(C)noc4C)ccc32)CC1` (single isomer, unassigned) [Compound 3C] had a 50% inhibitory concentration (IC50) against p300 of 14.1 nM.

Consider `Cc1noc(C)c1-c1ccc2c(c1)nc([C@H]1CCCC(=O)N1c1ccc(F)c(F)c1)n2C1CC2C(C1)C2(F)F` (some centres unmarked) [Compound 2B], for which the IC50 at CBP was 0.67 nM; at p300, 3.54 nM.

In turn, `COC1CCC(n2c([C@@H]3CN(C)C(=O)N3c3ccc(F)c(F)c3)nc3cc(-c4c(C)noc4C)ccc32)CC1` (some centres unmarked) [Compound 4A] registered a 50% inhibitory concentration (IC50) at p300 of 11.3 nM.

Source of the values: patent US20240109879A1, “BENZIMIDAZOLE COMPOUND AND APPLICATION THEREOF” (Medshine Discovery Inc., priority 2020, published 2024).
